Measured values reported in ChEMBL document CHEMBL1201862, “PubChem BioAssay data set” (2004).
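Each compound was tested at five concentrations against cells in 96-well plates for 48 hours. The concentration for 50% growth inhibition is given as GI50.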 Calls of active or inactive are those of the source. Cut-off read from the data, not from the text of the source: active = GI50 up to about 1.1 µM and inactive = higher.

How the values were obtained:
Assay in all cases: growth of human tumour cells (NCI), 48 h
SNB-19 = tested on: SNB-19
UACC-62 = tested on: UACC-62
RPMI-8226 = tested on: RPMI-8226
MOLT-4 = tested on: MOLT-4
NCI-H226 = tested on: NCI-H226
HT-29 = tested on: HT-29
KM12 = tested on: KM12
OVCAR-8 = tested on: OVCAR-8
786-0 = tested on: 786-0
SK-MEL-28 = tested on: SK-MEL-28
MDA-MB-231 = tested on: MDA-MB-231
SNB-75 = tested on: SNB-75
MCF7 = tested on: MCF7
DU-145 = tested on: DU-145
MDA-N = tested on: MDA-N
BT-549 = tested on: BT-549
SF-539 = tested on: SF-539
HOP-62 = tested on: HOP-62
CAKI-1 = tested on: CAKI-1
SK-MEL-5 = tested on: SK-MEL-5
HL-60 = tested on: HL-60
OVCAR-4 = tested on: OVCAR-4
MDA-MB-435 = tested on: MDA-MB-435
SN12C = tested on: SN12C
UACC-257 = tested on: UACC-257
UO-31 = tested on: UO-31
LOX IMVI = tested on: LOX IMVI
HCT-116 = tested on: HCT-116
U-251 = tested on: U-251
SK-OV-3 = tested on: SK-OV-3
RXF 393 = tested on: RXF 393
SF-295 = tested on: SF-295
M14 = tested on: M14
A549 = tested on: A549
Malme-3M = tested on: Malme-3M
IGROV-1 = tested on: IGROV-1
EKVX = tested on: EKVX
HCC 2998 = tested on: HCC 2998
ACHN = tested on: ACHN
A498 = tested on: A498
NCI/ADR-RES = tested on: NCI/ADR-RES
COLO 205 = tested on: COLO 205
OVCAR-5 = tested on: OVCAR-5
PC-3 = tested on: PC-3
SW-620 = tested on: SW-620
NCI-H522 = tested on: NCI-H522
NCI-H460 = tested on: NCI-H460
K562 = tested on: K562
OVCAR-3 = tested on: OVCAR-3
CCRF-CEM = tested on: CCRF-CEM
NCI-H23 = tested on: NCI-H23
SR = tested on: SR
SK-MEL-2 = tested on: SK-MEL-2
HOP-92 = tested on: HOP-92
SF-268 = tested on: SF-268
TK-10 = tested on: TK-10
HCT-15 = tested on: HCT-15
Hs-578T = tested on: Hs-578T

**Q.** CCOC(=O)C(=[N+]=[N-])C(=O)Nc1nn2nnnc2c2ccccc12 was tested. Which GI50 (SNB-19) did it give?
**A.** > 100 µM (inactive)

**Q.** And the GI50 (UACC-62)?
**A.** > 100 µM (inactive)

**Q.** And the GI50 (RPMI-8226)?
**A.** > 100 µM (inactive)

**Q.** What about the GI50 (MOLT-4) of the same compound?
**A.** > 100 µM (inactive)

**Q.** What about the GI50 (NCI-H226) of the same compound?
**A.** > 100 µM (inactive)

**Q.** And the GI50 (HT-29)?
**A.** > 100 µM (inactive)

**Q.** What about the GI50 (KM12) of the same compound?
**A.** > 100 µM (inactive)

**Q.** What about the GI50 (OVCAR-8) of the same compound?
**A.** > 100 µM (inactive)

**Q.** And the GI50 (786-0)?
**A.** > 100 µM (inactive)

**Q.** What about the GI50 (SK-MEL-28) of the same compound?
**A.** > 100 µM (inactive)

**Q.** And the GI50 (MDA-MB-231)?
**A.** > 100 µM (inactive)

**Q.** And the GI50 (SNB-75)?
**A.** 33.8 µM (inactive)

**Q.** What about the GI50 (MCF7) of the same compound?
**A.** > 100 µM (inactive)

**Q.** And the GI50 (DU-145)?
**A.** > 100 µM (inactive)

**Q.** What about the GI50 (MDA-N) of the same compound?
**A.** > 100 µM (inactive)

**Q.** And the GI50 (BT-549)?
**A.** > 100 µM (inactive)

**Q.** And the GI50 (SF-539)?
**A.** > 100 µM (inactive)

**Q.** What about the GI50 (HOP-62) of the same compound?
**A.** > 100 µM (inactive)

**Q.** What about the GI50 (CAKI-1) of the same compound?
**A.** > 100 µM (inactive)

**Q.** And the GI50 (SK-MEL-5)?
**A.** > 100 µM (inactive)

**Q.** What about the GI50 (HL-60) of the same compound?
**A.** > 100 µM (inactive)

**Q.** What about the GI50 (OVCAR-4) of the same compound?
**A.** > 100 µM (inactive)

**Q.** And the GI50 (MDA-MB-435)?
**A.** > 100 µM (inactive)

**Q.** What about the GI50 (SN12C) of the same compound?
**A.** > 100 µM (inactive)

**Q.** And the GI50 (UACC-257)?
**A.** > 100 µM (inactive)

**Q.** What about the GI50 (UO-31) of the same compound?
**A.** > 100 µM (inactive)

**Q.** And the GI50 (LOX IMVI)?
**A.** > 100 µM (inactive)

**Q.** And the GI50 (HCT-116)?
**A.** > 100 µM (inactive)

**Q.** And the GI50 (U-251)?
**A.** > 100 µM (inactive)

**Q.** And the GI50 (SK-OV-3)?
**A.** > 100 µM (inactive)

**Q.** What about the GI50 (RXF 393) of the same compound?
**A.** > 100 µM (inactive)

**Q.** What about the GI50 (SF-295) of the same compound?
**A.** > 100 µM (inactive)

**Q.** And the GI50 (M14)?
**A.** > 100 µM (inactive)

**Q.** What about the GI50 (A549) of the same compound?
**A.** > 100 µM (inactive)

**Q.** And the GI50 (Malme-3M)?
**A.** > 100 µM (inactive)

**Q.** And the GI50 (IGROV-1)?
**A.** > 100 µM (inactive)

**Q.** And the GI50 (EKVX)?
**A.** > 100 µM (inactive)

**Q.** What about the GI50 (HCC 2998) of the same compound?
**A.** > 100 µM (inactive)

**Q.** And the GI50 (ACHN)?
**A.** > 100 µM (inactive)

**Q.** And the GI50 (A498)?
**A.** > 100 µM (inactive)

**Q.** And the GI50 (NCI/ADR-RES)?
**A.** > 100 µM (inactive)

**Q.** And the GI50 (COLO 205)?
**A.** > 100 µM (inactive)

**Q.** And the GI50 (OVCAR-5)?
**A.** > 100 µM (inactive)

**Q.** And the GI50 (PC-3)?
**A.** > 100 µM (inactive)

**Q.** And the GI50 (SW-620)?
**A.** > 100 µM (inactive)

**Q.** And the GI50 (NCI-H522)?
**A.** > 100 µM (inactive)

**Q.** What about the GI50 (NCI-H460) of the same compound?
**A.** > 100 µM (inactive)

**Q.** What about the GI50 (K562) of the same compound?
**A.** > 100 µM (inactive)

**Q.** What about the GI50 (OVCAR-3) of the same compound?
**A.** > 100 µM (inactive)

**Q.** And the GI50 (CCRF-CEM)?
**A.** > 100 µM (inactive)

**Q.** What about the GI50 (NCI-H23) of the same compound?
**A.** > 100 µM (inactive)

**Q.** What about the GI50 (SR) of the same compound?
**A.** > 100 µM (inactive)

**Q.** And the GI50 (SK-MEL-2)?
**A.** > 100 µM (inactive)

**Q.** What about the GI50 (HOP-92) of the same compound?
**A.** > 100 µM (inactive)

**Q.** What does the source list for Cc1cc(Cl)ccc1NC(=O)/C(CC(=O)CC(c1ccccc1)c1c(O)c2ccccc2oc1=O)=N\O (stereo not drawn)?
**A.** GI50 (SNB-19): > 100 µM (inactive); GI50 (UACC-62): > 100 µM (inactive); GI50 (MOLT-4): > 100 µM (inactive); GI50 (NCI-H226): > 100 µM (inactive); GI50 (HT-29): > 100 µM (inactive); GI50 (KM12): > 100 µM (inactive); GI50 (OVCAR-8): > 100 µM (inactive); GI50 (786-0): > 100 µM (inactive); GI50 (SK-MEL-28): > 100 µM (inactive); GI50 (MDA-MB-231): > 100 µM (inactive); GI50 (SNB-75): > 100 µM (inactive); GI50 (MCF7): > 100 µM (inactive); GI50 (DU-145): > 100 µM (inactive); GI50 (MDA-N): > 100 µM (inactive); GI50 (BT-549): > 100 µM (inactive); GI50 (SF-539): > 100 µM (inactive); GI50 (SF-268): > 100 µM (inactive); GI50 (HOP-62): > 100 µM (inactive); GI50 (TK-10): > 100 µM (inactive); GI50 (CAKI-1): > 100 µM (inactive); GI50 (SK-MEL-5): > 100 µM (inactive); GI50 (HL-60): > 100 µM (inactive); GI50 (OVCAR-4): > 100 µM (inactive); GI50 (MDA-MB-435): > 100 µM (inactive); GI50 (SN12C): > 100 µM (inactive); GI50 (UACC-257): > 100 µM (inactive); GI50 (UO-31): 65 µM (inactive); GI50 (LOX IMVI): > 100 µM (inactive); GI50 (HCT-15): > 100 µM; GI50 (HCT-116): > 100 µM (inactive); GI50 (U-251): > 100 µM (inactive); GI50 (SK-OV-3): > 100 µM (inactive); GI50 (RXF 393): > 100 µM (inactive); GI50 (SF-295): > 100 µM (inactive); GI50 (M14): > 100 µM (inactive); GI50 (A549): > 100 µM (inactive); GI50 (IGROV-1): > 100 µM (inactive); GI50 (EKVX): > 100 µM (inactive); GI50 (HCC 2998): > 100 µM (inactive); GI50 (ACHN): > 100 µM (inactive); GI50 (NCI/ADR-RES): > 100 µM (inactive); GI50 (COLO 205): > 100 µM (inactive); GI50 (OVCAR-5): > 100 µM (inactive); GI50 (PC-3): > 100 µM (inactive); GI50 (SW-620): > 100 µM (inactive); GI50 (NCI-H522): > 100 µM (inactive); GI50 (NCI-H460): > 100 µM (inactive); GI50 (OVCAR-3): > 100 µM (inactive); GI50 (Hs-578T): > 100 µM (inactive); GI50 (CCRF-CEM): 7.87 µM (inactive); GI50 (NCI-H23): > 100 µM (inactive); GI50 (SK-MEL-2): > 100 µM (inactive); GI50 (HOP-92): 39.2 µM (inactive)

**Q.** Which GI50 (SNB-19) does the source give for CN(C)c1ccc(/C=C2\N=C(N/N=C/c3ccccc3O)NC2=O)cc1 here?
**A.** 41.9 µM (inactive)

**Q.** What about the GI50 (RPMI-8226) of the same compound?
**A.** 38.6 µM (inactive)

**Q.** What about the GI50 (NCI-H226) of the same compound?
**A.** 20.5 µM (inactive)

**Q.** What about the GI50 (HT-29) of the same compound?
**A.** 34.3 µM (inactive)

**Q.** What about the GI50 (SK-MEL-28) of the same compound?
**A.** 25.1 µM (inactive)

**Q.** And the GI50 (SNB-75)?
**A.** 31.2 µM (inactive)

**Q.** What about the GI50 (DU-145) of the same compound?
**A.** 32.3 µM (inactive)

**Q.** And the GI50 (MDA-N)?
**A.** 39.1 µM (inactive)

**Q.** What about the GI50 (BT-549) of the same compound?
**A.** 44.7 µM (inactive)

**Q.** What about the GI50 (SF-268) of the same compound?
**A.** 34.4 µM (inactive)

**Q.** And the GI50 (HOP-62)?
**A.** 22.5 µM (inactive)

**Q.** What about the GI50 (TK-10) of the same compound?
**A.** 25.6 µM (inactive)

**Q.** And the GI50 (MDA-MB-435)?
**A.** 32.8 µM (inactive)

**Q.** And the GI50 (SN12C)?
**A.** 36.7 µM (inactive)

**Q.** And the GI50 (RXF 393)?
**A.** 23.9 µM (inactive)

**Q.** What about the GI50 (HCC 2998) of the same compound?
**A.** 36.9 µM (inactive)

**Q.** What about the GI50 (A498) of the same compound?
**A.** 25.1 µM (inactive)

**Q.** And the GI50 (COLO 205)?
**A.** 31.3 µM (inactive)

**Q.** And the GI50 (OVCAR-5)?
**A.** 49.9 µM (inactive)

**Q.** And the GI50 (Hs-578T)?
**A.** 68.9 µM (inactive)

**Q.** What about the GI50 (HOP-92) of the same compound?
**A.** 24 µM (inactive)
